Experimental data taken from patent US20250009702A1 (SICHUAN JIUZHANG BIOLOGICAL SCIENCE AND TECHNOLOGY CO., LTD., priority 2021, published 2025).

How the values were obtained:
[1] = system: pfeiffer cancer cells (diffuse large B-cell lymphoma cell line); assay: MTS assay of the in vitro inhibitory effect on DLBCL cells (pfeiffer); format: cell-based; conditions: for OD value Mean / OD value 1 / OD value 2 / OD value 3: MTS, 490 nm; for OD value 1: well 1; for OD value 2: well 2; for OD value 3: well 3
Method: 2.2 MTS Assay of the In Vitro Inhibitory Effect of the Treatment Group on DLBCL Cells (Pfeiffer)
The cells in logarithmic growth phase were digested with 0.25% trypsin, washed with the basic medium, and centrifuged (1000 r/min, twice in 5 minutes). The cells were suspended with complete medium, and the cell concentration was adjusted to […], which was inoculated into a 96-well plate at 50 μl/well (6×10^3 cells/well).
The next day, after the cells adhered to the wall, the drug was given to each group and then incubated for 48 h at a constant temperature of 37° C. under 5% CO2. The dosage for each well is 100 μl. For the blank group, no cell was inoculated, and an equal amount of medium (100 μl) was added; the negative control group received an equal amount of medium (100 μl) after cell inoculation, and 3 wells were set for one group.
20 μl of MTS was added to each well. The plate was further cultivated for 3 h for color development, and then shaken for 10 seconds before testing, to mix well.
The OD value was determined at a wavelength of 490 nm using an enzyme-linked immunosorbent assay (ELISA), and the OD value of the blank control was adjusted to 0.

[2] = system: DLBCL in the orbit (DLBCL pfeiffer cell lines); assay: In vivo treatment of DLBCL in the orbit (pfeiffer transplanted tumor model)
Method: DLBCL pfeiffercell lines were purchased from ATCC, USA.
(§1) BALB/c mice: 60 mice, half male and half female, 3-4 weeks old, weighing 15-22 g, purchased from the Experimental Animal Management Center of West China Medical Center.
The cells were thawed in a 37° C. water bath according to the method provided by ATCC, and cultured in RPMI-1640 medium. The medium was exchanged or the cells were passaged every 1-2 days. When the cells were in a stable proliferative state, the cells with good vitality were selected from the 2nd to 3rd generations and counted under a microscope using a cell counting board. The concentration of inoculate cells was adjusted to 1.5×10^8/ml, and sealed for later use.
The tumor cell suspension inoculation method was used. Before cell inoculation, all mice were subjected to cesium-137 radiation to further immunosuppress and improve the success rate of inoculation. Tumor cells were inoculated within 6 hours after irradiation. After disinfecting with 75% alcohol around the eyes, 0.1 ml of tumor cell suspension was drawn using an 1 ml empty needle, and injected into the orbit through the skin of the upper temporal eyelid. […] After inoculation, high-pressure sterilized water containing 100000 U/L of gentamicin was given for one week to prevent infection. 5% glucose with egg yolk was orally administered daily to enhance nutrition. The growth state of mice and local tumor growth was observed every day.
The drug preparation was formulated prior to daily administration, and given for 14 days.
(§2) During the administration period, the growth of the mouse tumor, eating, activity, and other adverse reactions were observed and recorded every other day. After 14 days of administration, the mice were euthanized using cervical dislocation method, and their body weight and tumor size were measured and recorded according to the pre-administration numbers. The tumor inhibition rate (%) was calculated based on tumor weight.

[3] = system: DLBCL in the brain (DLBCL Ly8 cell lines); assay: In vivo treatment of DLBCL in the brain (Ly8 transplanted tumor model); conditions: i.p. 3 mg/kg once every two days
Source text: DLBCL Ly8 cell lines were purchased from the Cancer Hospital of Fudan University, which were suspended, cultured, and passaged in 10% calf serum DMEM complete medium, with stable growth. Cells in the logarithmic growth phase were collected, centrifuged, counted, and diluted to 10^4/μl for later use. Cells were inoculated at 2×10^4 cells/animal.
as §1
The mice were anesthetized by intraperitoneal injection of 1% pentobarbital sodium (0.2 μl), fixed on a stereotactic device, and disinfected with 2% chlorhexidine iodine solution on the skin of skull part. The injection site of the syringe was 0.1 cm to the left or right of the midline of the skull, and 0.3 cm in front of the coronal suture in mice. The microsyringe was sequentially penetrated through the skin and skull of the mouse skull part, and was fixed about 1-2 mm into the skull. 2 μl of Ly8 cell suspension was slowly injected (about 2×10^4 cells), and the injection was performed within 15 minutes, followed by leaving the needle for 5 minutes to allow the cells to fully attach, and then slowly removing the needle. […] During sleep after anesthesia, the mice were kept at 30° C. for 2 h. After anesthesia wore off, the mice were placed at room temperature of 25° C., and the surface changes were observed 24 h after inoculation. The following symptoms were observed: topical protrusion on the injection side, body emaciation, lethargy, and decreased mobility.
The mice in the above test drug groups receiving the prepared drug were administered by intraperitoneal injection at 0.2 mL/10 g body weight. The drug preparation was formulated prior to daily administration, and given for 14 days.
as §2

[4] = Homo sapiens, 10 μg/ml, 48 h, pfeiffer cells, read-out: Inhibition rate (%)
[5] = i.p. 3 mg/kg once every two days, 14 days

O=C(/C=C/c1ccc(O)c(O)c1)O[C@@H]1C[C@](O)(C(=O)O)C[C@@H](O)[C@H]1O [CHA, Chlorogenic acid]
OD value Mean ([1]; 5 μg/ml, 48 h): 1.263
OD value 1 ([1]; 5 μg/ml, 48 h): 1.335
OD value 2 ([1]; 5 μg/ml, 48 h): 1.221
OD value 3 ([1]; 5 μg/ml, 48 h): 1.233
OD value Mean ([1]; 10 μg/ml, 48 h): 1.149
OD value 1 ([1]; 10 μg/ml, 48 h): 1.156
OD value 2 ([1]; 10 μg/ml, 48 h): 1.142
OD value 3 ([1]; 10 μg/ml, 48 h): 1.15
OD value Mean ([1]; 30 μg/ml, 48 h): 0.998
OD value 1 ([1]; 30 μg/ml, 48 h): 1.006
OD value 2 ([1]; 30 μg/ml, 48 h): 1.007
OD value 3 ([1]; 30 μg/ml, 48 h): 0.98
OD value Mean ([1]; 50 μg/ml, 48 h): 0.628
OD value 1 ([1]; 50 μg/ml, 48 h): 0.630
OD value 2 ([1]; 50 μg/ml, 48 h): 0.621
OD value 3 ([1]; 50 μg/ml, 48 h): 0.634
OD value Mean ([1]; 100 μg/ml, 48 h): 0.658
OD value 1 ([1]; 100 μg/ml, 48 h): 0.661
OD value 2 ([1]; 100 μg/ml, 48 h): 0.65
OD value 3 ([1]; 100 μg/ml, 48 h): 0.664
cell morphology / growth of pfeiffer cancer cell lines under inverted microscope ([1]; 50-100 μg/ml, 48 h): significant inhibitory effect
inhibition at 5 µg/mL ([1]; Homo sapiens, 5 μg/ml, 48 h, pfeiffer cells, read-out: Inhibition rate (%)): 45.7%
inhibition at 10 µg/mL [1, 4]: 50.6%
inhibition at 30 µg/mL ([1]; Homo sapiens, 30 μg/ml, 48 h, pfeiffer cells, read-out: Inhibition rate (%)): 57.1%
inhibition at 50 µg/mL ([1]; Homo sapiens, 50 μg/ml, 48 h, pfeiffer cells, read-out: Inhibition rate (%)): 73%
inhibition at 100 µg/mL ([1]; Homo sapiens, 100 μg/ml, 48 h, pfeiffer cells, read-out: Inhibition rate (%)): 71.7%
tumor inhibition rate ([1]; concentration 50-100 μg/ml, pfeiffer cells): 71.68-72.97%
inhibitory effect on pfeiffer cancer cells compared with methotrexate ([1]; same dose 10 μg/ml): higher inhibitory effect

CN(Cc1cnc2nc(N)nc(N)c2n1)c1ccc(C(=O)N[C@@H](CCC(=O)O)C(=O)O)cc1 [methotrexate]
Body weight (g) Before administration ([2]; before administration, group later given i.p. 3 mg/kg once every two days): 19.31 ± 0.66 g
Body weight (g) After administration [2, 5]: 18.23 ± 0.79 g
Survival number (mice) [2, 5]: 6 mice
Tumor inhibition rate (%) [2, 5]: 41.14%
deaths ([2]; positive control group, i.p. 3 mg/kg once every two days): 1
Survival number (mouse) ([3]; 14 days): 6 mouse
Tumor inhibition rate (%) ([3]; 14 days): 41.06%
Tumor weight ([3]; 14 days): 0.79 ± 0.12 g
Weight (g) After treatment ([3]; 14 days): 17.26 ± 0.65 g
deaths ([3]; positive control group): 1
OD value Mean ([1]; 10 μg/ml, 48 h): 1.193
OD value 1 ([1]; 10 μg/ml, 48 h): 1.202
OD value 2 ([1]; 10 μg/ml, 48 h): 1.193
OD value 3 ([1]; 10 μg/ml, 48 h): 1.185
inhibition at 10 µg/mL [1, 4]: 48.7%
